From ChEMBL document CHEMBL5291721, “A preclinical secondary pharmacology resource illuminates target-adverse drug reaction associations of marketed drugs” (Nat Commun, 2023) come the findings set out here.

The target of experiment [1] is T1, Estrogen receptor (Homo sapiens, UniProt P03372).
T1 sequence (P03372 whole entry): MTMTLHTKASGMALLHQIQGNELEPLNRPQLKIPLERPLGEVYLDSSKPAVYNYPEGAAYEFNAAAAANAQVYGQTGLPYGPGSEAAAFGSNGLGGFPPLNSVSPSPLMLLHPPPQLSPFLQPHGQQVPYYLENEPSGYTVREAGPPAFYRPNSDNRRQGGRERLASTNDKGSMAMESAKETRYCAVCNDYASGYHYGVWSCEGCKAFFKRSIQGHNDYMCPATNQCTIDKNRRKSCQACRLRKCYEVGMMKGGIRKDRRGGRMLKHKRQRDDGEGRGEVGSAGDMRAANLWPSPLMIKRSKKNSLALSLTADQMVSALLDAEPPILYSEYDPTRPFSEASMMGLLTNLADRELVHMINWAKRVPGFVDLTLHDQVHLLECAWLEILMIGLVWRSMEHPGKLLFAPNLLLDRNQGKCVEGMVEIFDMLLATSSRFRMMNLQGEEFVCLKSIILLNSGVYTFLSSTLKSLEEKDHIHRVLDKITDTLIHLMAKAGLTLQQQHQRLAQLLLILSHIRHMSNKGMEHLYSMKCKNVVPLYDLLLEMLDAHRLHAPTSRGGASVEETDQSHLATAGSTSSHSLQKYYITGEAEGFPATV

The target in experiment [2] is T2, Adenosine receptor A1 (Homo sapiens, UniProt P30542).
T2 sequence (P30542 whole entry): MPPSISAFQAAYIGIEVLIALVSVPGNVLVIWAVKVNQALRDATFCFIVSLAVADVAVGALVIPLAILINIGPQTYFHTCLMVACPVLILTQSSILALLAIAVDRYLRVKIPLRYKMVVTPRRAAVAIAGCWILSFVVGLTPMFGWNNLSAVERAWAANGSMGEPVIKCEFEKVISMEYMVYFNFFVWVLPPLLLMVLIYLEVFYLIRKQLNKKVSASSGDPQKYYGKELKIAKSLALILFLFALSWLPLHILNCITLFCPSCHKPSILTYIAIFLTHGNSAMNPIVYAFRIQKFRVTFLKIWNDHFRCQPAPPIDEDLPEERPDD

Experiment [3] has as its target Adenosine receptor A2a (Homo sapiens, UniProt P29274).
For experiment [4], the target named is T3, Adenosine receptor A3 (Homo sapiens, UniProt P0DMS8).
T3 sequence (P0DMS8 whole entry): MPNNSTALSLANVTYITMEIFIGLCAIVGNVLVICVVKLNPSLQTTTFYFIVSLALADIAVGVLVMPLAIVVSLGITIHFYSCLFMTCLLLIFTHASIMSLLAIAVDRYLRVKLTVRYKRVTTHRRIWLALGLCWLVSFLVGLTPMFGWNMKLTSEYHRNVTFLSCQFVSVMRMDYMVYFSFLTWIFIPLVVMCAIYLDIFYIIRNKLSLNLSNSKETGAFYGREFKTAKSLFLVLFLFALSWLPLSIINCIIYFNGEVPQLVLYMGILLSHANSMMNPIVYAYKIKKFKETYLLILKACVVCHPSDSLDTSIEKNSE

The target of experiment [5] is T4, Type-1 angiotensin II receptor (Homo sapiens, UniProt P30556).
T4 sequence (P30556 whole entry): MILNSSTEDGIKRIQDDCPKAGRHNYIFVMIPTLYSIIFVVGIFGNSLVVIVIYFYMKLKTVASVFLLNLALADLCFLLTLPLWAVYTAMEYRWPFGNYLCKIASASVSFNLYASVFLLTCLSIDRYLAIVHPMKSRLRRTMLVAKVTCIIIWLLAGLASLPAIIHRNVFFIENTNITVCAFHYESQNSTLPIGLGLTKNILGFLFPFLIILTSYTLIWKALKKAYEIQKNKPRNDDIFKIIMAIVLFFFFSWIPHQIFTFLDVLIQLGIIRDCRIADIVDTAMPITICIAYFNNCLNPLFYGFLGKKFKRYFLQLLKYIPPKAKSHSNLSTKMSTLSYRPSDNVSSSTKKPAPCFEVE

The target of experiment [6] is T5, Cholecystokinin receptor type A (Homo sapiens, UniProt P32238).
T5 sequence (P32238 whole entry): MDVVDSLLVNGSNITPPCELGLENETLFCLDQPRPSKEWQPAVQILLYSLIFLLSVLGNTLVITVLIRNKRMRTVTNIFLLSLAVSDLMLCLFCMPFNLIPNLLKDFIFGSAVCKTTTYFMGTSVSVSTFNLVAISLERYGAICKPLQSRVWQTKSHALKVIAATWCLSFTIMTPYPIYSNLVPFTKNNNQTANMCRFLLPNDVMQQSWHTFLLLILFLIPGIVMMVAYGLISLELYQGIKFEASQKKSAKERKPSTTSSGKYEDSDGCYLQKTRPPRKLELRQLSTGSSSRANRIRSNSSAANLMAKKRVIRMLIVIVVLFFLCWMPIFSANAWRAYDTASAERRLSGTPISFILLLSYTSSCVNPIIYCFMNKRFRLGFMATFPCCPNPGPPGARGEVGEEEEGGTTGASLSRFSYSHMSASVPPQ

For experiment [7], the target named is Melanocortin receptor 3 (Homo sapiens, UniProt P41968).
Experiment [8] addresses Motilin receptor (Homo sapiens, UniProt O43193).
In experiment [9] the target is 3',5'-cyclic-AMP phosphodiesterase 4D (Homo sapiens, UniProt Q08499). The class given is functional.
The target of experiment [10] is T6, Equilibrative nucleoside transporter 1 (Homo sapiens, UniProt Q99808).
T6 sequence (Q99808 whole entry): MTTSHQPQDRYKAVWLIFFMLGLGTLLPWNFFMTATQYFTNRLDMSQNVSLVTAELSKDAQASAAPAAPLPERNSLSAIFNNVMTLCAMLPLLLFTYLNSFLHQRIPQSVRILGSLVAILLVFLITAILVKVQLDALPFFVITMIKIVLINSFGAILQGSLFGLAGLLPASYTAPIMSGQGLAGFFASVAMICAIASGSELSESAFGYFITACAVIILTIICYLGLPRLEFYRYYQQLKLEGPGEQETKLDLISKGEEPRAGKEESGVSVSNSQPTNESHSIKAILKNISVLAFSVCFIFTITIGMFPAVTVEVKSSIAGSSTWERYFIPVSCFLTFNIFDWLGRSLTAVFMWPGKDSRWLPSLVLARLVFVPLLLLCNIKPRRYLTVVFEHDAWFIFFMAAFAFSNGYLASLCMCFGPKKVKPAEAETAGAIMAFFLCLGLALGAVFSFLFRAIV

Experiment [11] deals with cGMP-inhibited 3',5'-cyclic phosphodiesterase 3A (Homo sapiens, UniProt Q14432). The class given is functional.
Experiment [12] deals with Neuronal acetylcholine receptor subunit alpha-4 (Homo sapiens, UniProt P43681).
In experiment [13] the target is Gamma-aminobutyric acid receptor subunit alpha-1 (Rattus norvegicus, UniProt P62813).
Further: assay procedure not described here.

Sequence of Motilin receptor (O43193 whole entry): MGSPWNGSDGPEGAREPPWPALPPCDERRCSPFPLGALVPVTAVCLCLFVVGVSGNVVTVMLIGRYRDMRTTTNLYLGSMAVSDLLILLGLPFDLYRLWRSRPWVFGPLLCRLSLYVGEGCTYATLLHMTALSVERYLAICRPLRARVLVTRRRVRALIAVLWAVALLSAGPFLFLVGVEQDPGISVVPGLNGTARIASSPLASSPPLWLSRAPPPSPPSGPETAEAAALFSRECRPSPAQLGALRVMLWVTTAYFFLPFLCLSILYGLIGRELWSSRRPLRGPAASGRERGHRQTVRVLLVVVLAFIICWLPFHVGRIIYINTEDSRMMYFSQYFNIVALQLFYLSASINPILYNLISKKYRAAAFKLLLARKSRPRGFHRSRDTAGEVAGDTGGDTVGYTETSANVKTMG
Sequence of 3',5'-cyclic-AMP phosphodiesterase 4D (Q08499 whole entry): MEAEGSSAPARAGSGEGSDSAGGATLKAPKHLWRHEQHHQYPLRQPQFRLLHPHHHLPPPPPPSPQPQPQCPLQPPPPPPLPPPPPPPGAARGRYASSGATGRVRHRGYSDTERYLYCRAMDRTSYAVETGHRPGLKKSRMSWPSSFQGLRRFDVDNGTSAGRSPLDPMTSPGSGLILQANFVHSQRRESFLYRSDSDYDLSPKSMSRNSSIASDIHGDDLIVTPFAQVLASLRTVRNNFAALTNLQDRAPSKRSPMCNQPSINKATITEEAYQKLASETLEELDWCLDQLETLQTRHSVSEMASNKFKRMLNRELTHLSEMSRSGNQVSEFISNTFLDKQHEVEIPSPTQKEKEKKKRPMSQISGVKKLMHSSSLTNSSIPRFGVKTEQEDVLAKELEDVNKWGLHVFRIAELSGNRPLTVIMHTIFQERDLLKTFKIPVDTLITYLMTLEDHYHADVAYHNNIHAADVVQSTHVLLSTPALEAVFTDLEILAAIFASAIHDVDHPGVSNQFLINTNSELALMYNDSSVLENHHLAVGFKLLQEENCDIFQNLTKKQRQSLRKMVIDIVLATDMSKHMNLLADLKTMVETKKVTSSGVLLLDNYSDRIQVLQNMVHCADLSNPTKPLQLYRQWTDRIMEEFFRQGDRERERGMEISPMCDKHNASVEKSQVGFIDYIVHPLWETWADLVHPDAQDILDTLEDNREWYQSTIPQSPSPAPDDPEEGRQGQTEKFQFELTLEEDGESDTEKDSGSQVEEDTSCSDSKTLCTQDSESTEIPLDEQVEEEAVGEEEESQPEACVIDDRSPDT
Sequence of Neuronal acetylcholine receptor subunit alpha-4 (P43681 whole entry): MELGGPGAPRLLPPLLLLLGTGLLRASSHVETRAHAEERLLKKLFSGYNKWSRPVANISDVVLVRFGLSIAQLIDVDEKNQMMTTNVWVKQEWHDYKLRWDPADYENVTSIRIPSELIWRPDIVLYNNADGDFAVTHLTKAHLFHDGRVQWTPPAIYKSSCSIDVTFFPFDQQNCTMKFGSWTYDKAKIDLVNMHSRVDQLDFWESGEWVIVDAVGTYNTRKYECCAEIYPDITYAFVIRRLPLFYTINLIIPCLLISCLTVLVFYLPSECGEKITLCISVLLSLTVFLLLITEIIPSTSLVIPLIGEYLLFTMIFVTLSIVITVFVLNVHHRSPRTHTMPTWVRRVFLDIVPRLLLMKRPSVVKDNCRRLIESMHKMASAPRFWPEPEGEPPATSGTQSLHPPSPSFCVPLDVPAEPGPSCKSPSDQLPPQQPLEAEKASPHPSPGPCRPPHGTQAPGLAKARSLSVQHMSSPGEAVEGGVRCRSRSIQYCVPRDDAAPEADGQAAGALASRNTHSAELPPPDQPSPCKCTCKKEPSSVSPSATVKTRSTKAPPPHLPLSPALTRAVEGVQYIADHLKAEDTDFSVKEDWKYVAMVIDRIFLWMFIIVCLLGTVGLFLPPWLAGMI
Sequence of cGMP-inhibited 3',5'-cyclic phosphodiesterase 3A (Q14432 whole entry): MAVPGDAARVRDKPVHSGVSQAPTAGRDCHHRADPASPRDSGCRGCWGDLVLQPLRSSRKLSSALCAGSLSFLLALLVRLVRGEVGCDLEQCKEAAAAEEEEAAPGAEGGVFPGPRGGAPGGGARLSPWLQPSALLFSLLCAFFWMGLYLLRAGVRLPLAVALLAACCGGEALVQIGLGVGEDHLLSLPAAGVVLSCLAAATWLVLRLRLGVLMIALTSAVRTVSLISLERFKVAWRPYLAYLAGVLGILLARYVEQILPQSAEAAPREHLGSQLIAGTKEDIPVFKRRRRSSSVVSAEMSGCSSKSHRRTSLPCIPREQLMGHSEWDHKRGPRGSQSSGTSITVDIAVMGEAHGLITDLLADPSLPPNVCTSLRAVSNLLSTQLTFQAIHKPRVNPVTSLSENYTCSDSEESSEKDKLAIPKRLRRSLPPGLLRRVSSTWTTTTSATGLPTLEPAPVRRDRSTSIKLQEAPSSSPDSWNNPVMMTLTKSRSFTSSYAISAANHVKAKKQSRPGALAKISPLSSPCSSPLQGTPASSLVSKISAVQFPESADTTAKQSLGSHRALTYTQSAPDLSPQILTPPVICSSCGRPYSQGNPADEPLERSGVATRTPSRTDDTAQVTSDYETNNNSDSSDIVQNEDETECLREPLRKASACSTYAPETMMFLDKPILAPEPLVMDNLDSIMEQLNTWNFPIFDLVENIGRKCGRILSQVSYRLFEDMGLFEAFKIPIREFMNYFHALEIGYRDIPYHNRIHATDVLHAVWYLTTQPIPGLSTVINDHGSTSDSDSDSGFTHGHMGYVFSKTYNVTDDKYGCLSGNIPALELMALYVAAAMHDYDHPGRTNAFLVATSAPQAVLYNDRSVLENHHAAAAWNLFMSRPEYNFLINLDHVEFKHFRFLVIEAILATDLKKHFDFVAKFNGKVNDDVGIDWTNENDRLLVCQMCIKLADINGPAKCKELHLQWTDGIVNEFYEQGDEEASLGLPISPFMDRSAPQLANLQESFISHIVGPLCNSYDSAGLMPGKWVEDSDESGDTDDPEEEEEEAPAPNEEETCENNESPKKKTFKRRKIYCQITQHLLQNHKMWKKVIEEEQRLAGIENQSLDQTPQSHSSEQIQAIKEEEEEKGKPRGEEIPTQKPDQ
Sequence of Melanocortin receptor 3 (P41968 whole entry): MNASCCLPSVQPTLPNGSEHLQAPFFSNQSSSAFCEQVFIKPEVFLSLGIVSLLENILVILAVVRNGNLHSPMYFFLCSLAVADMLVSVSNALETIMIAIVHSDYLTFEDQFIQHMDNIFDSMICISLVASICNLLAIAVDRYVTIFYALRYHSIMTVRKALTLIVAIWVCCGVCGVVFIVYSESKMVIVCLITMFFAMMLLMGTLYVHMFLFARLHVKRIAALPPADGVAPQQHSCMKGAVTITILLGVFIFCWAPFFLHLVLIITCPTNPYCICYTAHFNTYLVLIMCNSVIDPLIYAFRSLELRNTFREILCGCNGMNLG
Sequence of Adenosine receptor A2a (P29274 whole entry): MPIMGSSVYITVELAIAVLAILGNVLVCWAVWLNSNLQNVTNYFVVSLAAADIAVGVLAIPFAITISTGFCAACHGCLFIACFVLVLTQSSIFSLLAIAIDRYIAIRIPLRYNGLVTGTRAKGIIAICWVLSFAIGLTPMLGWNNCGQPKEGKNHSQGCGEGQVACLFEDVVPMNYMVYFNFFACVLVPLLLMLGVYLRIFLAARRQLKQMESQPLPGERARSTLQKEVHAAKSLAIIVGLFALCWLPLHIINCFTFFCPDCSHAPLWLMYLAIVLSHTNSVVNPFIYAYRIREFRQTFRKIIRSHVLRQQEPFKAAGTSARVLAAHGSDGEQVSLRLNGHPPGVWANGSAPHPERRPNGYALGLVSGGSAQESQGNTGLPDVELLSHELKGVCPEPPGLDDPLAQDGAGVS
Sequence of Gamma-aminobutyric acid receptor subunit alpha-1 (P62813 whole entry): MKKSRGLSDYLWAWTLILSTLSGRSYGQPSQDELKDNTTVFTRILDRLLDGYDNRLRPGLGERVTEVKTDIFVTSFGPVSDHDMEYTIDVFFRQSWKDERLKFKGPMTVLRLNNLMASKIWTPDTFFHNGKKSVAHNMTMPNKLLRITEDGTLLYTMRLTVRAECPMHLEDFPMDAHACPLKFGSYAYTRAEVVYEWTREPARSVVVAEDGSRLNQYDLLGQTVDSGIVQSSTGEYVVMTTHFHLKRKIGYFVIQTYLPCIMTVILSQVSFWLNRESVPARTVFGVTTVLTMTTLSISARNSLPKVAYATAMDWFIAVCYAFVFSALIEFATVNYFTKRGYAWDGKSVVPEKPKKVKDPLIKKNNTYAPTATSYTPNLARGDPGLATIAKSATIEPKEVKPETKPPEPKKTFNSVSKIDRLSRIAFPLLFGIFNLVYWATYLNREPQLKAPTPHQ

By AC50 is commonly meant the midpoint of the concentration-response curve, whichever way the signal moves. Read a high AC50 as activity only at high concentration. As to `CC(C)N(CCNC(=O)CN1CCCC1=O)C(C)C`, the AC50 in experiment [1] is over 30 µM.
On the same count and under the same terms, the figure for `Cc1cc(N)c2ccccc2[n+]1CCCCCCCCCC[n+]1c(C)cc(N)c2ccccc21` is 20.8 µM.
The same measure, in the same setting: in the case of `CCOC(=O)[C@H](CCc1ccccc1)N[C@@H](C)C(=O)N(CC(=O)O)C1Cc2ccccc2C1` it was over 30 µM; in that of `CCN(CCCc1ccccc1)CCCc1ccccc1` [ALVERINE], over 30 µM; in that of `COc1cc(N2CCC(N3CCN(C)CC3)CC2)ccc1Nc1ncc(Cl)c(Nc2ccccc2P(C)(C)=O)n1` [BRIGATINIB], over 30 µM.
For `CN(C)CCOC(c1ccccc1)c1ccc(Br)cc1` (stereo not given) [BROMODIPHENHYDRAMINE], the AC50 in experiment [1] was over 30 µM.
With `CC(=O)O[C@]1(C(C)=O)CC[C@H]2[C@@H]3C=C(Cl)C4=CC(=O)CC[C@]4(C)[C@H]3CC[C@@]21C` [CHLORMADINONE ACETATE], the AC50 in experiment [1] was over 30 µM.
Same read-out and setting: in the case of `NC(=O)OCC(O)COc1ccc(Cl)cc1` (stereo not given) [CHLORPHENESIN CARBAMATE] it was over 30 µM.
Regarding `O=C(O)c1cn(C2CC2)c2cc(N3CCNCC3)c(F)cc2c1=O` [CIPROFLOXACIN], the AC50 in [2], in experiment [3], in [4], in experiment [5], in [6] and in [1] was over 30 µM each time. The AC50 was over 30 µM in [7]; over 10 µM in experiment [8]; over 30 µM in experiment [9]; over 30 µM in experiment [10]; over 30 µM in experiment [11].
As to `CCN(CC)C(=S)S` [DITIOCARB], the half-maximal activity concentration (AC50) in experiment [1] was over 30 µM.
Turning to `CC(C(=O)O)c1ccc(-c2ccccc2)c(F)c1` (stereo not given) [FLURBIPROFEN], the AC50 in experiment [2], in experiment [3], in experiment [4], in [5], in experiment [6] and in experiment [12] was over 10 µM throughout. Moreover, the AC50 in experiment [1] was over 30 µM; in experiment [13] it was over 10 µM; in experiment [7], over 10 µM; in experiment [8], over 10 µM; in experiment [9], over 30 µM; in [10], over 10 µM. This compound also returned an AC50 in [11] of over 30 µM.
As for `Cc1cnc(C(=O)NCCc2ccc(S(=O)(=O)NC(=O)NC3CCCCC3)cc2)cn1` [GLIPIZIDE], the AC50 is over 30 µM in experiment [2]; over 30 µM in experiment [3]; over 30 µM in [4]; over 30 µM in [5]; over 30 µM in [6]; over 10 µM in experiment [12]. In addition, the AC50 in [1] was over 30 µM; in [7] it was over 30 µM; in experiment [8], over 10 µM; in experiment [9] it was over 30 µM; in experiment [10] it was over 30 µM; in experiment [11], over 30 µM.
Compound `CC(N)Cc1ccc(O)cc1` (stereo not given) [HYDROXYAMPHETAMINE] displayed an AC50 in [1] of over 30 µM.
As for `COc1cc2c(cc1OC)CC(=O)N(CCCN(C)C[C@H]1Cc3cc(OC)c(OC)cc31)CC2` [IVABRADINE], the AC50 in experiment [1] is over 30 µM.
Same read-out and setting: in the case of `CC(C)(C)NC[C@H](O)COc1cccc2c1CCCC2=O` [LEVOBUNOLOL] it was over 30 µM.
As to `CN1CCN(C2=Nc3ccccc3Oc3ccc(Cl)cc32)CC1` [LOXAPINE], the AC50 is over 30 µM in experiment [2]; over 30 µM in experiment [3]; over 30 µM in experiment [4]; over 30 µM in experiment [5]; over 30 µM in experiment [6]; over 10 µM in experiment [12]. Also, the half-maximal activity concentration (AC50) is over 30 µM in [1]; over 10 µM in experiment [13]; over 30 µM in experiment [7]; over 10 µM in experiment [8]; over 30 µM in experiment [10]; over 30 µM in experiment [11].
`CN1C(=O)/C(=N\NC(N)=S)c2ccccc21` [METHISAZONE]: in experiment [1], the AC50 is over 30 µM.
On the same count and under the same terms, the figure for `COC(=O)c1ccc(O)cc1` [METHYLPARABEN] is over 30 µM.
Regarding `CCCc1nc(C(C)(C)O)c(C(=O)O)n1Cc1ccc(-c2ccccc2-c2nnn[nH]2)cc1` [OLMESARTAN], the figures for the AC50 in [5] and in experiment [1] were 0.0004 µM and over 30 µM, respectively.
`NCC(CC(=O)O)c1ccccc1` (stereo not given) [PHENIBUT] registered an AC50 in [1] of over 30 µM.
Still for that read-out and setting: the figure for `Cc1ncc(COP(=O)(O)O)c(C=O)c1O` [PYRIDOXAL PHOSPHATE ANHYDROUS] is 10.3 µM; for `c1ccc2c(c1)CCc1ccccc1N2C1CN2CCC1CC2` (stereo not given) [QUINUPRAMINE] it is over 30 µM.
`C[C@H](Cc1cc2c(c(C(N)=O)c1)N(CCCO)CC2)NCCOc1ccccc1OCC(F)(F)F` [SILODOSIN] yielded an AC50 in experiment [1] of over 30 µM.
On the same count and under the same terms, in the case of `CC1=CCC(C(C)(C)O)CC1O` (stereo not given) [SOBREROL] it was over 30 µM; in that of `CCOC(=O)N1CSC[C@H]1C(=O)O` [TELMESTEINE], over 30 µM.
